Laboratory results published in article PMC4576993 (Leukemia, 2011).

Test: Renal excretion of vosaroxin and metabolites in urine, 24 h after first dose
Format: in vivo, human
Details: 18 and 27 mg/m^2 weekly, eight patients

Average renal excretion of the total dose infused (24 h after first dose): 0.99%
Detection in urine (first dose): the only metabolite detected in urine
Ratio of N-desmethyl-vosaroxin to vosaroxin excretion in urine (first dose, coefficient of variation 40%): 0.43
Compound: CO[C@H]1CN(c2ccc3c(=O)c(C(=O)O)cn(-c4nccs4)c3n2)C[C@@H]1N [N-desmethyl-vosaroxin]
